Assay results from publication PMC10938439, “C-3 Steroidal Hemiesters as Inhibitors of 17β-Hydroxysteroid Dehydrogenase Type 10” (ACS Omega, 2024).

What was measured:
17β-HSD10 = target: T1, 17β-HSD10 (Homo sapiens, UniProt Q99714); assay: Inhibition type determination with respect to substrate 17β-estradiol (Hanes–Woolf plot); assay type: biochemical; settings: compound at 3, 6 and 9 μM, 17β-estradiol 12.5–75 μM, NAD+ 500 μM
T1 construct: inferred from Ni-NTA purification with imidazole elution; made in house; host or cells: E. coli BL21 (DE3)
T1 sequence (Q99714 1-261): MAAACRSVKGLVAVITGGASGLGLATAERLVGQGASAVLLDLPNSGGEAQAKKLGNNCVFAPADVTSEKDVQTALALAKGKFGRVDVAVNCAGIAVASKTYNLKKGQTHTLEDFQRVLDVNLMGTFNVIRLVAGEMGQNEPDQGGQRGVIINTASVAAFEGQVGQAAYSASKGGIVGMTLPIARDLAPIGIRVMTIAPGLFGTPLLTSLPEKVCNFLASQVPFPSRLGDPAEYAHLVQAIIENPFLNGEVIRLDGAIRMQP
Protocol: The uninhibited enzymatic reaction (0 μM 23) was compared with the enzymatic reaction at three concentrations of compound 23 (3, 6, and 9 μM) using 17β-estradiol as the substrate. […] Such inhibitor binds the enzyme preventing the formation of the enzyme–substrate complex. […] This hypothesis was confirmed by the kinetic experiment. The obtained data were linearized by using Hanes–Woolf plot (Figure 2).
The type of inhibition of compound 23 was determined with respect to the substrate 17β-estradiol. The inhibitor was determined at three different concentrations (3, 6, and 9 μM) in combination with different concentrations of 17β-estradiol (12.5–75 μM) and a saturated NAD^+ concentration (500 μM). As vehicle control, DMSO was used. The obtained data were analyzed using GraphPad Prism 8.4.3 (GraphPad Software Inc.). All measurements were performed in triplicate.

[1] = target: T2, 17β-HSD10 overexpressed in HEK-293 (HEK-293-HSD10 cell line) (Homo sapiens, UniProt Q99714); assay: Fluorogenic (−)–CHANA assay for cellular inhibition of 17β-HSD10; assay type: cell-based; settings: HEK-293-HSD10, (−)–CHANA probe
T2 construct: expressed in transfected cells; host or cells: HEK-293 (HEK-293-HSD10)
T2 sequence (Q99714 1-261): T1 sequence (Q99714 1-261)
Protocol: Identical concentrations of compound 23 were used for fluorogenic cellular assay using a special probe (−)–CHANA as a substrate for 17β-HSD10 overexpressed in HEK-293 (HEK-293-HSD10 cell line).[15] […] The exact IC50 value at the cellular level was not possible to determine because of some method interferences, as well as its unknown cytotoxic characteristics. Higher IC50 (>20 μM) is in agreement with the high concentration of 17β-HSD10 in the model cell line.[15]
A previously published cell line with overexpressed 17β-HSD10 (HEK-293-HSD10)[15] was used to measure 17β-HSD10 inhibition in the cellular environment. For this purpose, the (−)–CHANA fluorogenic probe was used. The cells (density 1 × 10^4 cells per well) were seeded in DMEM (200 μL) without phenol red (Gibco). […] The changes in fluorescent intensities were measured immediately after (-)-CHANA addition and 2 h later. The fluorescence intensities of the CHANK product were taken by using the TECAN SPARK 10 M instrument (Ex/Em = 380/525 nm). The residual 17β-HSD10 activity was calculated as ΔF between 2 and 0 h after (-)-CHANA treatment, and the data were normalized between nontreated HEK-293-HSD10 and native, nontransfected HEK-293 controls (using relative response ratio). […]

Caco-2 cells = system: Caco-2 cells; parameters: method as in PMID 30296546; settings: cited from earlier work

## C[C@@]12CCC[C@H]1[C@@H]1CC=C3C[C@@H](OC(=O)CCCCC(=O)O)CC[C@]3(C)[C@H]1CC2 [Compound 23, Androst-5-en-3β-yl Hemiadipate]
17β-HSD10
  type of inhibition: competitive
[1]; HEK293, highest concentration 25 μM, read-out: inhibition of 17β-HSD10 activity in cells
  inhibition at 25 µM: ~50%
[1]; exact value not determinable, read-out: IC50 at the cellular level
  IC50: > 20 µM
Caco-2 cells
  Caco-2 cell permeability (50 μM) Papp: 3.1 × 10^–6 cm/s
